Measured values: patent US9447057B2, “Schiff bases of thiazoles: a new class of ureases inhibitors” (priority 2014, dated 2016)
“Also recorded” adds a separate entry of the source. Where two headings read alike, the source gives them in different places.

Key:
[1] = biological target: Jack bean (Canavalia ensiformis) urease (Canavalia ensiformis (Jack bean) (Dolichos ensiformis), UniProt P07374); assay: biochemical; assay type: biochemical; conditions: for urease inhibitory activity compared with standard thiourea: in words
Description: The Schiff bases of thiazoles were evaluated for their urease inhibitory potential by using the following protocol:
Finally the results were processed by software SoftMax Pro (Molecular Devices, CA, USA), MS-Excel and Ez-fit. The Percent inhibition was calculated from the formula given below: 100−(OD of test compound/OD of control)×100
The IC50 values were then calculated using the EZ-Fit Enzyme Kinetics program (Perrella Scientific Inc., Amherst, U.S.A.).

[2] = biological target: jack bean urease (Canavalia ensiformis (Jack bean) (Dolichos ensiformis), UniProt P07374); assay: biochemical; assay type: biochemical; set-up: Vmax / Vmaxapp: unit not given here; conditions: for Type of Inhibition: from Lineweaver-Burk plot; for Vmaxapp / Kmapp: in presence of inhibitor; for Kmapp / Km: substrate urea; for Km / Vmax: without inhibitor
Description: The Lineweaver-Burk plot was used to determine the type of inhibition, while Dixon plot and secondary replete were used for the determination of dissociation constants (Ki). The Ki, Km, and Vmax were determined by non-linear regression equation. The Ki value was determined from lineweaver-Burk plot. For the calculation of Ki values, initially the 1/Vmaxapp values were determine on y-axis of lineweaver-Burk plot at each junction point of lines of every inhibitor concentration. Secondly the slope of the inhibitor at concentration of each line were determined on Lineweaver-Burk plot and re-plotted against the inhibitor concentrations.
Graphs were plotted using GraFit program. Values of the correlation coefficients, slopes, intercepts, and their standard errors were obtained by the linear regression analysis using the same program. Each point in the constructed graphs represents the mean of the three experiments.
In mixed-type of inhibition, both Km and Vmax are affected.
Three different methods were applied to determine the type of inhibition and Ki values for these inhibitors. Firstly by using Lineweaver-Burk plots the reciprocal of the rate of the reaction were plotted against the reciprocal of substrate concentration to monitor the effect of inhibitor on both Km and Vmax. Secondly the secondary replots of Lineweaver-Burk plots were plotted to determine the Ki value. The Ki values were calculated by plotting the slope of each line in the Lineweaver-Burk plots against the different concentration of inhibitors.

[3] = Jack bean urease, pH 6.8, 100 mM urea, 30° C., 15 min, read-out: IC50 ± SEM
[4] = Table 2, jack bean urease, read-out: IC50
[5] = mean of triplicate, read-out: Ki ± S.E.M.

N-[2-Naphthylmethyl- idene]-N-(4-phenyl- 1,3-thiazol-2-yl)amine [Compound 7]
IC50 [1, 3]: 9.33 ± 0.02 µM
IC50 [1, 4]: 9.33 µM
Type of Inhibition [2]: Competitive inhibition
Vmaxapp [2]: 29
Ki [2, 5]: 11.89 ± 0.004 µM
Kmapp [2]: 6.28 mM
Km [2]: 2250 µM
Vmax [2]: 28.8

N-[4-Ethoxyphenyl)methyl- idene]-N-(4-phenyl-1,3- thiazol-2-yl)amine [Compound 4]
IC50 [1, 4]: 11.2 µM
Type of Inhibition [2]: mixed-type; also recorded: Mixed inhibition
Vmaxapp [2]: 12.85
Ki [2, 5]: 9.23 ± 0.018 µM
Kmapp [2]: 2.56 mM
Km [2]: 2250 µM
Vmax [2]: 23.47

N-(4-Phenyl-1,3- thiazol-2-yl)-N-[4- pyridinylmethyl- idene]amine [Compound 5]
IC50 ([1]; read-out: IC50): 7.6 µM
IC50 ([1]; read-out: IC50 ± SEM): 7.6 ± 0.08 µM
Type of Inhibition [2]: Competitive inhibition
Vmaxapp [2]: 23.5
Ki [2, 5]: 13.6 ± 0.0123 µM
Kmapp [2]: 5.09 mM
Km [2]: 2250 µM
Vmax [2]: 21.64

N-[2,6-Dichloro- phenyl)methylidene]-N-(4- phenyl-1,3-thiazol- 2-yl)amine [Compound 25]
IC50 [1, 3]: 22.33 ± 0.11 µM
urease inhibitory activity compared with standard thiourea [1]: significant urease inhibitory activity, comparable to standard

N-[2-Chloro- phenyl)methylidene]- N-(4-phenyl-1,3- thiazol-2-yl) amine [Compound 20]
IC50 [1, 3]: 13.03 ± 0.02 µM

Oc1ccc(Cl)cc1C=Nc1nc(-c2ccccc2)cs1 [Compound 8, 4-Chloro-2-{[(4-phenyl-1,3-thiazol-2-yl)imino]methyl} phenol]
IC50 [1, 3]: 8.13 ± 0.02 µM
IC50 [1, 4]: 8.1 µM
Ki [2]: 7.89 ± 0.0142 µM

N-[4-(Dimethylamino) phenyl]methylidene}-N- (4-phenyl-1,3-thiazol-2- yl)amine [Compound 14]
IC50 [1, 3]: 20.36 ± 0.11 µM

N-[4-Nitrophenyl)methyl- idene]-N-(4-phenyl-1,3- thiazol-2-yl)amine [Compound 11]
IC50 [1, 3]: 32.5 ± 0.02 µM
urease inhibitory activity compared with standard thiourea [1]: significant urease inhibitory activity, comparable to standard

COc1cccc(C=Nc2nc(-c3ccccc3)cs2)c1O [Compound 6, 2-Methoxy-6-{[(4-phenyl-1,3-thiazol-2-yl)imino]methyl} phenol]
IC50 ([1]; IC50): 8.8 µM
Ki [2]: 8.22 ± 0.0233 µM

Oc1ccc(C=Nc2nc(-c3ccccc3)cs2)cc1 [Compound 12, 4-{[(4-Phenyl-1,3-thiazol-2-yl)imino]methyl}phenol]
IC50 ([1]; IC50 ± SEM): 20.16 ± 0.07 µM

C(=Nc1nc(-c2ccccc2)cs1)c1c[nH]c2ccccc12 [Compound 2, N-[1H-indol-3-yl-methylidene]-N-(4-phenyl-1,3-thiazol-2-yl)amine]
IC50 [1, 3]: 8.56 ± 0.027 µM
IC50 [1, 4]: 8.5 µM
Ki [2]: 9.6 ± 0.0024 µM

N-[2-Fluorophenyl) methylidene]-N- (4-phenyl-1,3- thiazol-2-yl)amine [Compound 22]
IC50 [1, 3]: 17.93 ± 0.07 µM

CCOc1cccc(C=Nc2nc(-c3ccccc3)cs2)c1O [Compound 3, 2-Ethoxy-6-{[(4-phenyl-1,3-thiazol-2-yl)imino]methyl}phenol]
IC50 ([1]; IC50): 7.9 µM
IC50 ([1]; IC50 ± SEM): 7.9 ± 0.08 µM
Ki [2]: 9.7 ± 0.007 µM

Oc1cccc(C=Nc2nc(-c3ccccc3)cs2)c1O [Compound 23, 3-{[(4-Phenyl-1,3-thiazol-2-yl)imino]methyl}-1,2-benzenediol]
IC50 ([1]; IC50 ± SEM): 19.63 ± 0.19 µM

N-[4-(Methylsulfanyl) phenyl]methylidene}-N- (4-phenyl-1,3-thiazol-2- yl)amine [Compound 18]
IC50 [1, 3]: 6.96 ± 0.054 µM

N-[Phenylmethyl- idene]-N-(4-phenyl- 1,3-thiazol-2-yl) amine [Compound 19]
IC50 [1, 3]: 16.76 ± 0.054 µM

Oc1ccccc1C=Nc1nc(-c2ccccc2)cs1 [Compound 16, 2-{[(4-Phenyl-1,3-thiazol-2-yl)imino]methyl} phenol]
IC50 [1, 3]: 12.4 ± 0.14 µM

C(=Nc1nc(-c2ccccc2)cs1)c1cccc2ccccc12 [Compound 21, N-[1-Naphthyl-methylidene]-N-(4-phenyl-1,3-thiazol-2-yl)amine]
IC50 [1, 3]: 23.06 ± 0.11 µM

Cc1ccc(C=Nc2nc(-c3ccccc3)cs2)o1 [Compound 10, N-[(5-Methyl-2-furyl)methylidene]-N-(4-phenyl-1,3-thiazol-2-yl)amine]
IC50 [1, 3]: 17.83 ± 0.07 µM
IC50 [1, 4]: 17.8 µM
Ki [2]: 14.82 ± 0.0109 µM

N-[4-Isopropylphenyl) methylidene]-N-(4- phenyl-1,3-thiazol-2- yl)amine [Compound 9]
IC50 [1, 3]: 14.5 ± 0.16 µM
IC50 [1, 4]: 14.5 µM
Type of Inhibition [2]: mixed-type; also recorded: Mixed inhibition
Vmaxapp [2]: 8.72
Ki [2, 5]: 12.39 ± 0.0168 µM
Kmapp [2]: 3.22 mM
Km [2]: 2200 µM
Vmax [2]: 19

NC(N)=S [Thiourea, reference compound]
Type of Inhibition [2]: Competitive inhibition
Ki [2, 5]: 20.01 ± 0.02 µM
Kmapp [2]: 7.38 mM
Km [2]: 2250 µM

N-[4-Chlorophenyl) methylidene]-N-(4-phenyl- 1,3-thiazol-2-yl)amine [Compound 26]
IC50 [1, 3]: 19 ± 0.04 µM

N-[4-Methoxyphenyl) methylidene]-N-(4- phenyl-1,3-thiazol-2- yl)amine [Compound 13]
urease inhibitory activity compared with standard thiourea [1]: significant urease inhibitory activity, comparable to standard
